Measured values from US9346818B2 (priority 2012, dated 2016).
Entries after “also recorded” stand apart in the source; their conditions may differ.

How the values were obtained:
[1] = system: learning and memory disorder induced by intracerebroventricular injection of Aβ1-42; experiment: Morris water maze test, rats with intracerebroventricular injection of Aβ1-42; format: in vivo; conditions: for The period of reaching the platform for the first time (latent period) / times of crossing platform: 8 days
Description: The model of learning and memory disorder induced after intracerebroventricular injection of Aβ1-42 is the most common animal model for evaluating whether a compound has the effect of improving the learning and memory. […] Morris water maze test and the model of learning and memory disorder induced by intracerebroventricular injection of Aβ1-42 were employed in the present research, and the improvement effects of I-33 on learning and memory of rats at various concentration (0.7 mg/Kg, 3.5 mg/Kg, and 7 mg/Kg) were evaluated.
SD, male (220±20 g), the animals were fed in light: dark cycle (12 h/12 h) in a cleaning level of animal room, ad lib. The tests were performed after 3 days acclimation in the animal room. Aβ1-42 was formulated to 2 μg/μl according to the instruction of specification.
(1) Normal group: intracerebroventricular injection of physiological saline
(2) Model group with intracerebroventricular injection of Aβ1-42: intracerebroventricular injection of Aβ1-42
(4) I-33 (low concentration group): I-33 (0.7 mg/Kg)+intracerebroventricular injection of Aβ1-42
(5) I-33 (medium concentration group): I-33 (3.5 mg/Kg)+intracerebroventricular injection of Aβ1-42
(6) I-33 (high concentration group): I-33 (7 mg/Kg)+intracerebroventricular injection of Aβ1-42
Each rat in normal control group received intracerebroventricular injection of 5 μl of physiological saline, each rat in the other groups received intracerebroventricular injection of 5 μl of Aβ1-42. After the operation, the rats received the following tests after 1 week recovery period. […] The drugs were administered for 8 days, the training for water maze test was started on the 5th day, and the water maze test was formally started on the 9th day.

white mice = experiment: in vivo; conditions: for Mortality (%) / Number of death: 5 animals
Description: (§1) Firstly, preliminary tests were performed, in order to determine the concentration of each compound, with just 0% mortality or just 100% mortality, before starting the formal tests. The animals were divided into groups by weight, various dosages of drugs were administered between 0%-100%. Dosage volume: 10 ml/kg. Dosage manner: intravenous injection or intragastric administration.
(§2) The animals were divided into 6 groups, with 5 animals per group.
(§3) The animals were divided into 6 groups, with 5 animals per group. […] Each animal was fasted 12 h before administration.
(§4) The animals were divided into 5 groups, with 5 animals per group.
(§5) The animals were divided into 5 groups, with 5 animals per group. […] Each animal was fasted 12 h before administration.
(§6) The toxic reaction and death of the animals after administration were observed, and mortality was counted. The results were analyzed with LD50 data processing software.

in vivo = conditions: mouse, in vivo
Description: as §1, §2, §3, §4, §5, §6

[2] = Description: 0.3 ml of whole blood was collected at corresponding time point, anticoagulating with heparin, centrifuged at 4000 rpm for 10 min, the plasma was separated, 50 μL the plasma sample of rats was collected, 100 μL acetonitrile (containing 0.1% formic acid) was added, mixed under vortex for 1 min, centrifuged (12000 rpm) for 10 min, the supernatant was collected, analyzed with liquid chromatography-mass spectrometer, the area of peaks were recorded and used for the calculation of blood drug concentration, and the drug-time curve was plotted.
acetylcholinesterase = acetylcholinesterase (Homo sapiens (Human), UniProt P22303); experiment: biochemical; format: biochemical
acetylcholinesterase, sequence (P22303 32-614, species assumed): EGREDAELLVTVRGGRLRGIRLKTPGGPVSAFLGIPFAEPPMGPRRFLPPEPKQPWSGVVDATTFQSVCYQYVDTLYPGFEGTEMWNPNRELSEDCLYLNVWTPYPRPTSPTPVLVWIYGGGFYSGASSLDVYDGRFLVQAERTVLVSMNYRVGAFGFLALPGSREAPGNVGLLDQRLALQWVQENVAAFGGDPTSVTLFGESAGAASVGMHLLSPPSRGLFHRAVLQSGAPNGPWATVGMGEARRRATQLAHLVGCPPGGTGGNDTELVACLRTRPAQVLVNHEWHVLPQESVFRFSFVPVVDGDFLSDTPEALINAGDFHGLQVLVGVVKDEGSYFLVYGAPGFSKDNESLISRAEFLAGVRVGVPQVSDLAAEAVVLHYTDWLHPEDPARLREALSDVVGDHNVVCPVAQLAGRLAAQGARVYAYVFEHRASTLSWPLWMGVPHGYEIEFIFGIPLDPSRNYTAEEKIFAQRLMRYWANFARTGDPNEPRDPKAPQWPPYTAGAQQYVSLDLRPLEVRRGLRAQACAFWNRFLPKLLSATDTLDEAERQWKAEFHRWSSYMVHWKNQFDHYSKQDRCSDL

[3] = Aβ1-42 rats, DPH 3 mg/Kg, I-33 all dosages tested
[4] = high concentration 7 mg/Kg intragastric, Aβ1-42 rats
[5] = low concentration 0.7 mg/Kg intragastric, Aβ1-42 rats
[6] = medium concentration 3.5 mg/Kg intragastric, Aβ1-42 rats
[7] = Intragastric administration 215.23 mg/kg
[8] = Intragastric administration 239.15 mg/kg
[9] = Intragastric administration 265.72 mg/kg
[10] = Intragastric administration 295.25 mg/kg
[11] = Intragastric administration 450.00 mg/kg
[12] = Intragastric administration 500.00 mg/kg
[13] = Intravenous injection 16.18 mg/kg
[14] = Intravenous injection 20.48 mg/kg
[15] = Intravenous injection 25.60 mg/kg
[16] = Intravenous injection 32.00 mg/kg
[17] = Intravenous injection 40.00 mg/kg
[18] = Intravenous injection 50.00 mg/kg

Cl.O=C1c2cc3c(cc2C2(CC2)N1CCC1CCN(Cc2ccccn2)CC1)OCO3 [Compound I-33, 6-[2-[1-(2-pyridylmethyl)-4-piperidyl]ethyl]spiro[[1,3]dioxolo[4,5-f]isoindole-7,1′-cyclopropane]-5-one hydrochloride]
effect on period required for reaching the platform for the first time (latent period) [1, 3]: significantly shorten the period required for reaching the platform for the first time | effect on times of crossing the platform [1, 3]: significantly increases the times of crossing the platform | improvement of learning and memory disorder of rats induced by Aβ1-42 ([1]; Morris water maze, 0.7, 3.5 and 7 mg/Kg, hydrochloride): significantly improve the learning and memory disorder of rats induced by intracerebroventricular injection of Aβ1-42; also recorded: stronger effects of improving learning and memory | The period of reaching the platform for the first time (latent period) [1, 4]: 14.87 ± 3.62 | times of crossing platform [1, 4]: 3.20 ± 0.36 | The period of reaching the platform for the first time (latent period) [1, 5]: 21.37 ± 3.64 | times of crossing platform [1, 5]: 3.00 ± 0.33 | The period of reaching the platform for the first time (latent period) [1, 6]: 18.10 ± 6.54 | times of crossing platform [1, 6]: 3.40 ± 0.43 | Mortality (%) (white mice; [7]): 0% | Number of death (white mice; [7]): 0 | Mortality (%) (white mice; [8]): 0% | Number of death (white mice; [8]): 1 | Mortality (%) (white mice; [9]): 40% | Number of death (white mice; [9]): 2 | Mortality (%) (white mice; [10]): 60% | Number of death (white mice; [10]): 3 | Mortality (%) (white mice; [11]): 80% | Number of death (white mice; [11]): 4 | Mortality (%) (white mice; [12]): 100% | Number of death (white mice; [12]): 5 | Mortality (%) (white mice; [13]): 0% | Number of death (white mice; [13]): 0 | Mortality (%) (white mice; [14]): 0% | Number of death (white mice; [14]): 0 | Mortality (%) (white mice; [15]): 20% | Number of death (white mice; [15]): 1 | Mortality (%) (white mice; [16]): 60% | Number of death (white mice; [16]): 3 | Mortality (%) (white mice; [17]): 80% | Number of death (white mice; [17]): 4 | Mortality (%) (white mice; [18]): 100% | Number of death (white mice; [18]): 5 | median lethal dose by oral and intravenous administration, times of those of donepezil hydrochloride (white mice; oral and intravenous): 8-10 times | toxicity compared with donepezil hydrochloride (white mice; preliminary acute toxicity tests, hydrochloride): lower toxicity than donepezil hydrochloride; also recorded: much lower toxicity | LD50 (in vivo; iv): 31.3 mg/kg | LD50 (in vivo; po): 303 mg/kg | t1/2z ([2]; rat plasma, oral 5 mg/kg): 2.085 ± 0.392 | absorption degree (AUC) and peak concentration (Cmax) compared with donepezil hydrochloride ([2]; rat, oral, same dosage 5 mg/kg): significantly higher than those of donepezil hydrochloride | potency on acetylcholinesterase compared with positive control drug donepezil hydrochloride (acetylcholinesterase; in vitro, enzymology level): even lower | IC50 (acetylcholinesterase; read-out: IC50 (nM), inhibition activity on acetylcholinesterase): 950 nM
